# The supplement of paper PMC8149375
# Key:
# Details in all cases: treatment: drug alone; 5 days
# 769-P [1] = test: GI50, drug alone; higher = less potent
# Experimental: (§1)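 Primary HTS: 8 RCC cell lines treated with 8 doses (up to 10 uM) of each library drug alone for 5 days; viability read by CellTiter-Glo and normalised to DMSO. GI50 was fitted with XLfit (4-parameter), AUC is the area under the dose-response curve, and minimum viability is the lowest fraction of DMSO viability across doses.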
# 786-O [2] = test: GI50, drug alone; higher = less potent
# Experimental: as §1
# A498 [3] = test: GI50, drug alone; higher = less potent
# Experimental: as §1
# ACHN [4] = test: GI50, drug alone; higher = less potent
# Experimental: as §1
# CAKI-1 [5] = test: GI50, drug alone; higher = less potent
# Experimental: as §1
# SN12C [6] = test: GI50, drug alone; higher = less potent
# Experimental: as §1
# TK-10 [7] = test: GI50, drug alone; higher = less potent
# Experimental: as §1
# UO-31 [8] = test: GI50, drug alone; higher = less potent
# Experimental: as §1
# 769-P [9] = test: minimum viability across doses, drug alone, relative to DMSO (fraction); higher = less growth inhibition
# Experimental: as §1
# 786-O [10] = test: as above
# Experimental: as §1
# A498 [11] = test: as above
# Experimental: as §1
# ACHN [12] = test: as above
# Experimental: as §1
# CAKI-1 [13] = test: as above
# Experimental: as §1
# SN12C [14] = test: as above
# Experimental: as §1
# TK-10 [15] = test: as above
# Experimental: as §1
# UO-31 [16] = test: as above
# Experimental: as §1
# 769-P [17] = test: AUC of dose-response viability curve, drug alone (arbitrary (AUC of normalised viability)); higher = less growth inhibition
# Experimental: as §1
# 786-O [18] = test: as above
# Experimental: as §1
# A498 [19] = test: as above
# Experimental: as §1
# ACHN [20] = test: as above
# Experimental: as §1
# CAKI-1 [21] = test: as above
# Experimental: as §1
# SN12C [22] = test: as above
# Experimental: as §1
# TK-10 [23] = test: as above
# Experimental: as §1
# UO-31 [24] = test: as above
# Experimental: as §1
Structure (SMILES),"GI50, drug alone (769-P [1])","GI50, drug alone (786-O [2])","GI50, drug alone (A498 [3])","GI50, drug alone (ACHN [4])","GI50, drug alone (CAKI-1 [5])","GI50, drug alone (SN12C [6])","GI50, drug alone (TK-10 [7])","GI50, drug alone (UO-31 [8])",minimum viability across doses (769-P [9]),minimum viability across doses (786-O [10]),minimum viability across doses (A498 [11]),minimum viability across doses (ACHN [12]),minimum viability across doses (CAKI-1 [13]),minimum viability across doses (SN12C [14]),minimum viability across doses (TK-10 [15]),minimum viability across doses (UO-31 [16]),AUC of dose-response viability curve (769-P [17]),AUC of dose-response viability curve (786-O [18]),AUC of dose-response viability curve (A498 [19]),AUC of dose-response viability curve (ACHN [20]),AUC of dose-response viability curve (CAKI-1 [21]),AUC of dose-response viability curve (SN12C [22]),AUC of dose-response viability curve (TK-10 [23]),AUC of dose-response viability curve (UO-31 [24])
CCCCOc1c(C(=O)c2c(F)cc(C)cc2F)cnc2[nH]ncc12,> 10 µM,0.0969 µM,> 10 µM,0.267 µM,> 10 µM,> 10 µM,2.45 µM,0.984 µM,0.562,0.0155,0.575,0.198,0.745,0.564,0.47,0.00742,2.95,1.46,3.32,1.93,3.12,2.98,2.35,3.45
CCOc1ccn(-c2ccc(F)cc2)c(=O)c1C(=O)Nc1ccc(Oc2ccnc(N)c2Cl)c(F)c1,> 10 µM,> 10 µM,> 10 µM,8.82 µM,> 10 µM,> 10 µM,> 10 µM,> 10 µM,0.817,0.503,0.87,0.443,0.47,0.75,0.665,0.722,3.17,2.3,3.52,3.06,2.99,3.14,2.99,4.18
O=C1NC(=O)/C(=C/c2ccc(-c3ccc(F)cc3O)o2)S1,> 10 µM,> 10 µM,> 10 µM,> 10 µM,> 10 µM,> 10 µM,> 10 µM,4.73 µM,0.905,0.694,1.21,0.872,0.955,0.917,0.853,0.244,3.41,2.68,4.49,3.49,3.51,3.48,3.25,4.02
N#Cc1c(O)c2c(-c3ccc(-c4ccccc4O)cc3)csc2[nH]c1=O,> 10 µM,> 10 µM,> 10 µM,> 10 µM,> 10 µM,> 10 µM,> 10 µM,> 10 µM,0.963,0.823,0.9,0.904,0.977,0.868,0.929,0.948,3.7,3.47,3.53,3.45,3.65,3.39,3.6,4.14
O=C1NC(=O)/C(=C/c2ccc3nccnc3c2)S1,> 10 µM,> 10 µM,> 10 µM,> 10 µM,> 10 µM,> 10 µM,> 10 µM,> 10 µM,0.891,0.651,0.869,0.837,0.648,0.805,0.802,0.902,3.39,3.04,3.39,3.28,3.43,3.19,3.3,4.01
Cc1c(NC(=O)OC[C@@H]2COCCN2)cn2ncnc(Nc3ccc4c(cnn4Cc4cccc(F)c4)c3)c12.Cl,5.19 µM,> 10 µM,> 10 µM,4.1 µM,> 10 µM,> 10 µM,1.94 µM,> 10 µM,0.368,0.592,0.861,0.419,0.573,0.677,0.234,0.929,2.92,3.22,3.52,2.75,3.17,3.22,2.53,4.06
Cc1cc2c(F)c(Oc3ncnn4cc(OC[C@@H](C)O)c(C)c34)ccc2[nH]1,> 10 µM,> 10 µM,> 10 µM,> 10 µM,8.98 µM,> 10 µM,> 10 µM,9.55 µM,0.901,0.668,1.09,0.628,0.427,0.909,0.733,0.457,3.39,3.09,4.21,3.04,3.4,3.28,3.23,4.46
Cc1cc2c(F)c(Oc3ncnn4cc(OC[C@@H](C)OC(=O)[C@H](C)N)c(C)c34)ccc2[nH]1,> 10 µM,8.62 µM,> 10 µM,8.45 µM,> 10 µM,> 10 µM,> 10 µM,9.72 µM,0.818,0.358,0.898,0.417,0.605,0.75,0.637,0.458,3.33,2.99,3.68,2.61,3.29,3.35,3.26,3.77
C[C@@H]1COC(Nc2ccc3ncnc(Nc4ccc(OCc5nccs5)c(Cl)c4)c3c2)=N1,4.05 µM,> 10 µM,> 10 µM,1.88 µM,9.75 µM,> 10 µM,2.21 µM,> 10 µM,0.431,0.5,1.1,0.433,0.478,0.76,0.369,0.919,2.72,2.6,4.91,2.8,3.13,3.25,2.46,4.74
O=C1NC(=O)/C(=C/c2ccc3c(c2)OC(F)(F)O3)S1,> 10 µM,> 10 µM,> 10 µM,> 10 µM,> 10 µM,> 10 µM,> 10 µM,> 10 µM,0.947,0.474,0.83,0.93,0.98,0.775,0.858,0.92,3.5,2.35,3.81,3.46,3.54,3.07,3.24,4.4
